{
  "source": "patent US20140106967A1",
  "about": "“AUXIN PLANT GROWTH REGULATORS” (The Governors of The University of Alberta, priority 2011, published 2014)",
  "key": {"[1]": {"tested_on": "canola cv. Peace", "test": "Greenhouse canola study, foliar auxin spray at green bud stage, with or without heat stress (Tables C1-C4)", "type": "in vivo, Brassica napus", "details": "for % pod set / Seed yield / Total number of flowers / Total number of pods with developing seeds / Total number of racemes / Total number undeveloped pods: heat stress 33° C. 6 h/day, 6 days (Table C2); for % pod set per plant / Seed yield (g) per plant / Total number of flowers per plant / Total number of pods with developing seeds per plant / Total number of racemes per plant / Total number undeveloped pods per plant: non-heat stress (Table C1)", "experimental": "Canola seeds (Brassica napus) from the cultivar Peace were planted at an approximate depth of 1 cm in 5 inch square plastic pots (6 inch pot depth; 4 seeds per pot) in 1:1 Sunshine #4 potting mix (Sun Gro Horticulture, Vancouver, Canada) and sand. The seedlings were thinned to one seedling per pot approximately 2 weeks after seeding. Plants were grown at the University of Alberta in a greenhouse from Nov. 14, 2011 to Mar. 5, 2012. The average temperature was approximately 18° C. day/16° C. night (Nov. 14, 2011 to Feb. 8, 2012) then 21° C. day/19° C. night from Feb. 8 to Mar. 5, 2012. The plants also received supplemental lighting daily (average photon flux density of 250 μE m^−2s^−2) for 16 hours per day (from 6 am to 10 pm).\nThe auxins, 4-methyl-indole-3-acetic acid (4-ME-IAA) or 4-chloro-indole-3-acetic acid (4-Cl-IAA) at 1×10^−7, 1×10^−6, 1×10^−5, or 1×10^−4M in aqueous 0.1% (v/v) Tween 80 or a control solution (aqueous 0.1% [v/v] Tween 80) were applied one time as a foliar spray to canola plants at the green bud stage (BBCH scale 51; prior to bolting when flower buds are visible from above, but they are tightly clustered and have not extended above smallest leaves surrounding the inflorescence). The experiment was arranged in a completely randomized design in the greenhouse.\nThe heat stress treatment was imposed by moving plants to receive the heat stress from the greenhouse into a growth chamber for 6 days. The light cycle began at 7:00 hours at a 19° C. air temperature. The heat treatment began at 11:00 hours (33° C. air temperature) and was maintained for 6 hours (until 17:00 hours). Following the heat treatment, the remainder of the light cycle was maintained at a 22° C. air temperature. The dark cycle (began at 23:00 hours) was maintained at 17° C. The photoperiod was 16 h light/8 h dark at an average photon flux density of 492 μE m^−2s^−2 using 54W/835/HO high fluorescent bulbs, Phillips, Holland. This heat treatment cycle was imposed for 6 days. The plants were returned to the greenhouse after the heat stress treatment to develop to maturity."}, "[2]": {"tested_on": "wheat 'Harvest HRS'", "test": "Wheat field experiment (Table W1)", "type": "in vivo, Triticum aestivum", "details": "1×10^−5 M", "experimental": "The wheat (Triticum aestivum) cultivar Harvest HRS was seeded on May 20, 2011 with a target of 250 seedlings per m^2 into a field plot located at the St. Albert Field-Research Station of the University of Alberta, St. Albert, Alberta, Canada that was seeded with canola the previous season. Eight 2×4 m plots were cut out of a larger field plot with a mower producing two rows of four 2×4 m plots with a 1 m buffer between each plot and 4 m between the 4-plot rows. The hormone treatments were randomly assigned to the 2×4 plots. Aqueous solutions of 4-ME-IAA at 1×10^−5 M in 0.1% (v/v) Tween 80 or control solutions (0.1% [v/v]Tween 80) were sprayed Jul. 15, 2011 in slightly breezy (8 km/h), overcast weather, temperature 16° C. Three hours later, the sun emerged and the ambient temperature rose from 16° C. to 21° C. The relative humidity at the time of spraying was 75%. On average, 15% of the plants in the plots had their first florets open at the time of hormone application. A separate Chapin 20000-type 4 L pneumatic sprayer was used for applying the 4-ME-IAA and the control solutions; each sprayer was equipped with a medium-delivery blue fan nozzle designed to deliver 1.4 L per minute at the normal operating pressure of 40 PSI. Each plot was sprayed with a total of 0.91 L of solution to obtain uniform coverage."}, "[3]": {"details": "At maturity, 20 spikes per plot"}},
  "data": [
    {"smiles": "Cc1cccc2[nH]cc(CC(=O)O)c12", "note": "[4-ME-IAA, 4-methyl-indole-3-acetic acid]", "values": [
      {"measurement": "leaf epinasty", "setting": "[1]; 1×10^−4 M, 24 hours after treatment, milder under heat stress", "result": "leaf epinasty was observed"},
      {"measurement": "% pod set", "setting": "[1]; 1×10^−4 M", "result": "60 ± 1", "unit": "%"},
      {"measurement": "Seed yield", "setting": "[1]; 1×10^−4 M", "result": "6.0 ± 1.0", "unit": "g"},
      {"measurement": "Total number of flowers", "setting": "[1]; 1×10^−4 M", "result": "326 ± 34"},
      {"measurement": "Total number of pods with developing seeds", "setting": "[1]; 1×10^−4 M", "result": "196 ± 19"},
      {"measurement": "Total number of racemes", "setting": "[1]; 1×10^−4 M", "result": "12 ± 1"},
      {"measurement": "Total number undeveloped pods", "setting": "[1]; 1×10^−4 M", "result": "34 ± 10"},
      {"measurement": "% pod set per plant", "setting": "[1]; 1×10^−4 M", "result": "57 ± 2", "unit": "%"},
      {"measurement": "Seed yield (g) per plant", "setting": "[1]; 1×10^−4 M", "result": "4.9 ± 0.4", "unit": "g"},
      {"measurement": "Total number of flowers per plant", "setting": "[1]; 1×10^−4 M", "result": "261 ± 14"},
      {"measurement": "Total number of pods with developing seeds per plant", "setting": "[1]; 1×10^−4 M", "result": "148 ± 9"},
      {"measurement": "Total number of racemes per plant", "setting": "[1]; 1×10^−4 M", "result": "11 ± 1"},
      {"measurement": "Total number undeveloped pods per plant", "setting": "[1]; 1×10^−4 M", "result": "16 ± 2"},
      {"measurement": "increase in total number of flowers per plant vs control", "setting": "[1]; 1×10^−5 M, heat stress", "result": 43, "unit": "%"},
      {"measurement": "increase in total number of racemes per plant vs control", "setting": "[1]; 1×10^−5 M, heat stress", "result": 38, "unit": "%"},
      {"measurement": "% pod set", "setting": "[1]; 1×10^−5 M", "result": "50 ± 2", "unit": "%"},
      {"measurement": "Seed yield", "setting": "[1]; 1×10^−5 M", "result": "5.9 ± 1.2", "unit": "g"},
      {"measurement": "Total number of flowers", "setting": "[1]; 1×10^−5 M", "result": "520 ± 102"},
      {"measurement": "Total number of pods with developing seeds", "setting": "[1]; 1×10^−5 M", "result": "259 ± 55"},
      {"measurement": "Total number of racemes", "setting": "[1]; 1×10^−5 M", "result": "18 ± 2"},
      {"measurement": "Total number undeveloped pods", "setting": "[1]; 1×10^−5 M", "result": "64 ± 13"},
      {"measurement": "% pod set per plant", "setting": "[1]; 1×10^−5 M", "result": "62 ± 5", "unit": "%"},
      {"measurement": "Seed yield (g) per plant", "setting": "[1]; 1×10^−5 M", "result": "5.7 ± 0.7", "unit": "g"},
      {"measurement": "Total number of flowers per plant", "setting": "[1]; 1×10^−5 M", "result": "265 ± 14"},
      {"measurement": "Total number of pods with developing seeds per plant", "setting": "[1]; 1×10^−5 M", "result": "165 ± 18"},
      {"measurement": "Total number of racemes per plant", "setting": "[1]; 1×10^−5 M", "result": "10 ± 0"},
      {"measurement": "Total number undeveloped pods per plant", "setting": "[1]; 1×10^−5 M", "result": "22 ± 6"},
      {"measurement": "% pod set", "setting": "[1]; 1×10^−6 M", "result": "44 ± 7", "unit": "%"},
      {"measurement": "Total number of flowers", "setting": "[1]; 1×10^−6 M", "result": "435 ± 89"},
      {"measurement": "Total number of pods with developing seeds", "setting": "[1]; 1×10^−6 M", "result": "167 ± 15"},
      {"measurement": "Total number of racemes", "setting": "[1]; 1×10^−6 M", "result": "13 ± 2"},
      {"measurement": "Total number undeveloped pods", "setting": "[1]; 1×10^−6 M", "result": "71 ± 37"},
      {"measurement": "% pod set per plant", "setting": "[1]; 1×10^−6 M", "result": "62 ± 3", "unit": "%"},
      {"measurement": "Total number of flowers per plant", "setting": "[1]; 1×10^−6 M", "result": "250 ± 21"},
      {"measurement": "Total number of pods with developing seeds per plant", "setting": "[1]; 1×10^−6 M", "result": "155 ± 16"},
      {"measurement": "Total number of racemes per plant", "setting": "[1]; 1×10^−6 M", "result": "10 ± 1"},
      {"measurement": "Total number undeveloped pods per plant", "setting": "[1]; 1×10^−6 M", "result": "17 ± 5"},
      {"measurement": "% pod set", "setting": "[1]; 1×10^−7 M", "result": "52 ± 4", "unit": "%"},
      {"measurement": "Seed yield", "setting": "[1]; 1×10^−7 M", "result": "5.4 ± 0.9", "unit": "g"},
      {"measurement": "Total number of flowers", "setting": "[1]; 1×10^−7 M", "result": "418 ± 25"},
      {"measurement": "Total number of pods with developing seeds", "setting": "[1]; 1×10^−7 M", "result": "213 ± 6"},
      {"measurement": "Total number of racemes", "setting": "[1]; 1×10^−7 M", "result": "14 ± 1"},
      {"measurement": "Total number undeveloped pods", "setting": "[1]; 1×10^−7 M", "result": "50 ± 26"},
      {"measurement": "increase in total number of pods with developing seeds per plant vs control", "setting": "[1]; 1×10^−7 M, heat stress (6 hours at 33° C. per day for 6 days)", "result": 13, "unit": "%"},
      {"measurement": "increase in seed yield vs control", "setting": "[1]; 1×10^−7 M, non-heat stress", "result": 22, "unit": "%"},
      {"measurement": "increase in total number of pods with developing seeds per plant vs control", "setting": "[1]; 1×10^−7 M, non-heat stress", "result": 10, "unit": "%"},
      {"measurement": "% pod set per plant", "setting": "[1]; 1×10^−7 M", "result": "66 ± 1", "unit": "%"},
      {"measurement": "Seed yield (g) per plant", "setting": "[1]; 1×10^−7 M", "result": "5.5 ± 0.4", "unit": "g"},
      {"measurement": "Total number of flowers per plant", "setting": "[1]; 1×10^−7 M", "result": "256 ± 12"},
      {"measurement": "Total number of pods with developing seeds per plant", "setting": "[1]; 1×10^−7 M", "result": "170 ± 7"},
      {"measurement": "Total number of racemes per plant", "setting": "[1]; 1×10^−7 M", "result": "10 ± 1"},
      {"measurement": "Total number undeveloped pods per plant", "setting": "[1]; 1×10^−7 M", "result": "17 ± 3"},
      {"measurement": "increase in seed number per floral spike", "setting": "[2]", "result": 10, "unit": "%"},
      {"measurement": "increase in seed weight per floral spike", "setting": "[2]", "result": 12, "unit": "%"},
      {"measurement": "Seed number per spike", "setting": "[2]; At maturity", "result": "27.5 ± 1.3"},
      {"measurement": "Seed weight per spike", "setting": "[2]; At maturity", "result": "1.03 ± 0.05", "unit": "g"},
      {"measurement": "Total seed number", "setting": "[2]; [3]", "result": "550.8 ± 26.6"},
      {"measurement": "Total seed weight", "setting": "[2]; [3]", "result": "20.6 ± 1.1", "unit": "g"},
      {"measurement": "Number of spikes per plant", "setting": "[2]; Pre-harvest", "result": "3.825 ± 0.207"},
      {"measurement": "Plant height", "setting": "[2]; Pre-harvest", "result": "94.5 ± 0.4", "unit": "cm"}
    ]}
  ]
}
